In ChEMBL document CHEMBL1148691, “Inhibitors of hepatitis C virus NS3.4A protease. Effect of P4 capping groups on inhibitory potency and pharmacokinetics” (Bioorg Med Chem Lett, 2007):
pIC50, pKi: −log10 of the molar value.

Columns and labels:
[1] = Cytotoxicity against Huh7 cells by MTS assay; assay type: cell-based, Huh-7; conditions: human
[2] = Selectivity index, ratio of CC50 for Huh7cells to IC50 for HCV; assay type: functional
Hepatitis C virus = experiment: Inhibition of HCV replicon RNA production in HUh7 cells; assay type: functional, organism-based, Hepacivirus hominis; conditions: Huh-7
[3] = Inhibition of HCV NS3 4A protease; set-up: species or system Hepacivirus hominis
[4] = Ratio of drug level in CD1 mouse liver to IC50 for HCV; assay type: functional, tissue-based
Mus musculus [5] = experiment: AUC(0 to 8 hrs) in CD1 mouse plasma at 50 mg/kg, po; assay type: ADME, organism-based; set-up: dose 50 mg/kg, route oral; conditions: in vivo, 6 h
Mus musculus [6] = experiment: AUC(0 to 8 hrs) in CD1 mouse liver at 50 mg/kg, po; assay type: ADME, organism-based; set-up: dose 50 mg/kg, route oral; conditions: in vivo, 6 h
Liver = experiment: Drug level in CD1 mouse liver at 50 mg/kg, po; assay type: ADME, organism-based; set-up: dose 50 mg/kg, route oral; conditions: in vivo, read-out: Activity
Plasma = experiment: Drug level in CD1 mouse plasma at 50 mg/kg, po; assay type: ADME, organism-based; set-up: dose 50 mg/kg, route oral; conditions: in vivo

Structure (SMILES) | pIC50 (Hepatitis C virus) | pKi [3] | AUC (Mus musculus [5]) | AUC (Mus musculus [6]) | concentration (Liver) | concentration (Plasma) | CC50 [1] | Selectivity index [2] | Ratio [4]
CCC[C@H](NC(=O)[C@@H]1C[C@@H]2CCCC[C@@H]2N1C(=O)[C@@H](NC(=O)[C@@H](NC(=O)C1(O)CCCC1)C1CCCCC1)C(C)(C)C)C(=O)C(=O)NC1CC1 | 5.80 | 6.19 |  |  |  |  | > 100000 nM | > 64 | 
CCC[C@H](NC(=O)[C@@H]1C[C@@H]2CCCC[C@@H]2N1C(=O)[C@@H](NC(=O)[C@@H](NC(=O)C(=O)NC(C)C)C1CCCCC1)C(C)(C)C)C(=O)C(=O)NC1CC1 | 6.40 | 6.80 |  |  |  |  | > 100000 nM | > 249 | 
CCC[C@H](NC(=O)[C@@H]1C[C@@H]2CCCC[C@@H]2N1C(=O)[C@@H](NC(=O)[C@@H](NC(=O)C(=O)NCc1ccccc1)C1CCCCC1)C(C)(C)C)C(=O)C(=O)NC1CC1 | 6.59 | 6.85 |  |  |  |  | > 100000 nM | > 380 | 
CCC[C@H](NC(=O)[C@@H]1C[C@@H]2CCCC[C@@H]2N1C(=O)[C@@H](NC(=O)[C@@H](NC(=O)c1ccccn1)C1CCCCC1)C(C)(C)C)C(=O)C(=O)NC1CC1 | 5.72 | 6.28 |  |  |  |  | > 100000 nM | > 52 | 
CCC[C@H](NC(=O)[C@@H]1C[C@@H]2CCCC[C@@H]2N1C(=O)[C@@H](NC(=O)[C@@H](NC(=O)c1ncc[nH]1)C1CCCCC1)C(C)(C)C)C(=O)C(=O)NC1CC1 | 6.64 | 6.92 | 0.05 µM·h | 0.47 µM·h | 60 nM | 10 nM | > 100000 nM | > 442 | 0.26
CCC[C@H](NC(=O)[C@@H]1C[C@@H]2CCCC[C@@H]2N1C(=O)[C@@H](NC(=O)[C@H](C1CCCCC1)N1C(=O)c2ccccc2C1=O)C(C)(C)C)C(=O)C(=O)NC1CC1 | < 5.52 | 6.43 |  |  |  |  | > 100000 nM |  | 
CCC[C@H](NC(=O)[C@@H]1C[C@@H]2CCCC[C@@H]2N1C(=O)[C@@H](NC(=O)[C@@H](NC(=O)c1cnccn1)C1CCCCC1)C(C)(C)C)C(=O)C(=O)NC1CC1 | 5.96 | 6.82 | 1.5 µM·h | 2.9 µM·h | 360 nM | 180 nM | 47000 nM | 43 | 0.33
CCC[C@H](NC(=O)[C@@H]1C[C@@H]2CCCC[C@@H]2N1C(=O)[C@@H](NC(=O)[C@@H](NC(=O)c1ccoc1)C1CCCCC1)C(C)(C)C)C(=O)C(=O)NC1CC1 | 5.85 | 6.62 |  |  |  |  | > 100000 nM | > 71 | 
CCC[C@H](NC(=O)[C@@H]1C[C@@H]2CCCC[C@@H]2N1C(=O)[C@@H](NC(=O)[C@@H](NC(=O)c1cc2cc(F)ccc2[nH]1)C1CCCCC1)C(C)(C)C)C(=O)C(=O)NC1CC1 | 6.31 | 6.92 |  |  |  |  | > 100000 nM | > 203 | 
CCC[C@H](NC(=O)[C@@H]1C[C@@H]2CCCC[C@@H]2N1C(=O)[C@@H](NC(=O)[C@@H](NC(=O)c1cnc2ccccc2n1)C1CCCCC1)C(C)(C)C)C(=O)C(=O)NC1CC1 | 5.92 | 6.36 |  |  |  |  | > 100000 nM | > 81 | 
CCC[C@H](NC(=O)[C@@H]1C[C@@H]2CCCC[C@@H]2N1C(=O)[C@@H](NC(=O)[C@@H](NC(=O)c1cccnc1)C1CCCCC1)C(C)(C)C)C(=O)C(=O)NC1CC1 | 5.77 | 6.62 |  |  |  |  | > 100000 nM | > 58 | 
CCC[C@H](NC(=O)[C@@H]1C[C@@H]2CCCC[C@@H]2N1C(=O)[C@@H](NC(=O)[C@@H](NC(=O)c1ccc[nH]1)C1CCCCC1)C(C)(C)C)C(=O)C(=O)NC1CC1 | 6.30 | 7.05 | 0.36 µM·h | 1.3 µM·h | 170 nM | 40 nM | > 100000 nM | > 201 | 0.34

The next lines start with results.

pIC50 (Hepatitis C virus) | pKi [3] | AUC (Mus musculus [5]) | AUC (Mus musculus [6]) | concentration (Liver) | concentration (Plasma) | Structure (SMILES) | CC50 [1] | Selectivity index [2] | Ratio [4]
6.46 | 7.40 | 3 µM·h | 19 µM·h | 2400 nM | 370 nM | CCC[C@H](NC(=O)[C@@H]1[C@H]2CCC[C@H]2CN1C(=O)[C@@H](NC(=O)[C@@H](NC(=O)c1cnccn1)C1CCCCC1)C(C)(C)C)C(=O)C(=O)NC1CC1 | 82000 nM | 230 | 54
6.57 | 6.96 |  |  |  |  | CCC[C@H](NC(=O)[C@@H]1C[C@@H]2CCCC[C@@H]2N1C(=O)[C@@H](NC(=O)[C@@H](NC(=O)C(=O)NC1CC1)C1CCCCC1)C(C)(C)C)C(=O)C(=O)NC1CC1 | > 100000 nM | > 375 | 
6.43 | 7.30 |  | 0.06 µM·h | 10 nM |  | CCC[C@H](NC(=O)[C@@H]1C[C@@H]2CCCC[C@@H]2N1C(=O)[C@@H](NC(=O)[C@@H](NC(=O)c1cc([N+](=O)[O-])c[nH]1)C1CCCCC1)C(C)(C)C)C(=O)C(=O)NC1CC1 | > 100000 nM | > 270 | 0.03
< 5.52 | 5.92 | 1.3 µM·h | 2.1 µM·h | 260 nM | 170 nM | CCC[C@H](NC(=O)[C@@H]1C[C@@H]2CCCC[C@@H]2N1C(=O)[C@@H](NC(=O)[C@@H](NC(=O)c1nccn1C)C1CCCCC1)C(C)(C)C)C(=O)C(=O)NC1CC1 | > 100000 nM |  | 
6.70 | 7.52 | 0.36 µM·h | 10.5 µM·h | 1300 nM | 40 nM | CCC[C@H](NC(=O)[C@@H]1[C@H]2CCC[C@H]2CN1C(=O)[C@@H](NC(=O)[C@@H](NC(=O)c1ncc[nH]1)C1CCCCC1)C(C)(C)C)C(=O)C(=O)NC1CC1 |  |  | 52
5.96 | 6.49 |  |  |  |  | CCC[C@H](NC(=O)[C@@H]1C[C@@H]2CCCC[C@@H]2N1C(=O)[C@@H](NC(=O)[C@@H](NC(=O)[C@@H]1Cc2ccccc2N1)C1CCCCC1)C(C)(C)C)C(=O)C(=O)NC1CC1 | > 100000 nM | > 90 | 
